# Test system: Metabolism protein genes
# Experiment: DNA chip mRNA expression in yeast, metabolism protein genes (Table 7)
# Assay type: cell-based, Saccharomyces cerevisiae S288C
# Summary of the method: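 Measured as treated-to-untreated fluorescence ratio on a full-genome yeast DNA chip. Cells (S288C, YPD, 25° C.) were exposed in log phase for two hours to one chemical, dosed to curb growth without killing.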
smiles,measurement,setting,value
"N#Cc1c(Cl)c(Cl)c(Cl)c(C#N)c1Cl [(9), 2,4,5,6-tetrachloro-1,3-benzenedicarbonitrile]",The level of expressed mRNA in the presence of chemical substance/The level of expressed mRNA in the absence of chemical substance,yeast gene YAL012W,4.7
same,The level of expressed mRNA in the presence of chemical substance/The level of expressed mRNA in the absence of chemical substance,yeast gene YAL038W,0.1
same,The level of expressed mRNA in the presence of chemical substance/The level of expressed mRNA in the absence of chemical substance,yeast gene YAL044C,0.4
same,The level of expressed mRNA in the presence of chemical substance/The level of expressed mRNA in the absence of chemical substance,yeast gene YAL054C,8.9
same,The level of expressed mRNA in the presence of chemical substance/The level of expressed mRNA in the absence of chemical substance,yeast gene YAR071W,0.3
same,The level of expressed mRNA in the presence of chemical substance/The level of expressed mRNA in the absence of chemical substance,yeast gene YBL001C,1.5
same,The level of expressed mRNA in the presence of chemical substance/The level of expressed mRNA in the absence of chemical substance,yeast gene YBL033C,6.6
same,The level of expressed mRNA in the presence of chemical substance/The level of expressed mRNA in the absence of chemical substance,yeast gene YBL086C,3.3
same,level of expressed mRNA in the presence/in the absence of chemical substance,yeast gene YBR003W,1.0
same,level of expressed mRNA in the presence/in the absence of chemical substance,yeast gene YBR011C,2.2
same,The level of expressed mRNA in the presence of chemical substance/The level of expressed mRNA in the absence of chemical substance,yeast gene YBR014C,1.3
same,The level of expressed mRNA in the presence of chemical substance/The level of expressed mRNA in the absence of chemical substance,yeast gene YBR023C,0.3
same,The level of expressed mRNA in the presence of chemical substance/The level of expressed mRNA in the absence of chemical substance,yeast gene YBR029C,2.0
same,The level of expressed mRNA in the presence of chemical substance/The level of expressed mRNA in the absence of chemical substance,yeast gene YBR035C,2.2
same,The level of expressed mRNA in the presence of chemical substance/The level of expressed mRNA in the absence of chemical substance,yeast gene YBR068C,0.8
same,The level of expressed mRNA in the presence of chemical substance/The level of expressed mRNA in the absence of chemical substance,yeast gene YBR183W,0.4
same,The level of expressed mRNA in the presence of chemical substance/The level of expressed mRNA in the absence of chemical substance,yeast gene YBR222C,0.7
same,The level of expressed mRNA in the presence of chemical substance/The level of expressed mRNA in the absence of chemical substance,yeast gene YBR256C,18.1
same,The level of expressed mRNA in the presence of chemical substance/The level of expressed mRNA in the absence of chemical substance,yeast gene YBR296C,0.4
same,The level of expressed mRNA in the presence of chemical substance/The level of expressed mRNA in the absence of chemical substance,yeast gene YCL009C,0.9
same,The level of expressed mRNA in the presence of chemical substance/The level of expressed mRNA in the absence of chemical substance,yeast gene YCL064C,1.7
same,level of expressed mRNA in the presence/in the absence of chemical substance,yeast gene YCR010C,0.9
same,level of expressed mRNA in the presence/in the absence of chemical substance,yeast gene YCR034W,0.1
same,The level of expressed mRNA in the presence of chemical substance/The level of expressed mRNA in the absence of chemical substance,yeast gene YCR036W,2.6
same,The level of expressed mRNA in the presence of chemical substance/The level of expressed mRNA in the absence of chemical substance,yeast gene YCR048W,0.8
same,The level of expressed mRNA in the presence of chemical substance/The level of expressed mRNA in the absence of chemical substance,yeast gene YCR098C,1.4
same,The level of expressed mRNA in the presence of chemical substance/The level of expressed mRNA in the absence of chemical substance,yeast gene YDL124W,3.3
same,The level of expressed mRNA in the presence of chemical substance/The level of expressed mRNA in the absence of chemical substance,yeast gene YDR009W,1.3
same,The level of expressed mRNA in the presence of chemical substance/The level of expressed mRNA in the absence of chemical substance,yeast gene YDR019C,0.4
same,level of expressed mRNA in the presence/in the absence of chemical substance,yeast gene YDR050C,0.4
same,level of expressed mRNA in the presence/in the absence of chemical substance,yeast gene YDR123C,0.5
same,level of expressed mRNA in the presence/in the absence of chemical substance,yeast gene YDR178W,0.9
same,level of expressed mRNA in the presence/in the absence of chemical substance,yeast gene YDR277C,0.2
same,level of expressed mRNA in the presence/in the absence of chemical substance,yeast gene YDR284C,0.9
same,level of expressed mRNA in the presence/in the absence of chemical substance,yeast gene YDR345C,0.2
same,The level of expressed mRNA in the presence of chemical substance/The level of expressed mRNA in the absence of chemical substance,yeast gene YDR380W,0.2
same,level of expressed mRNA in the presence/in the absence of chemical substance,yeast gene YDR400W,1.1
same,level of expressed mRNA in the presence/in the absence of chemical substance,yeast gene YDR408C,0.3
same,level of expressed mRNA in the presence/in the absence of chemical substance,yeast gene YDR483W,0.4
same,The level of expressed mRNA in the presence of chemical substance/The level of expressed mRNA in the absence of chemical substance,yeast gene YDR487C,2.7
same,The level of expressed mRNA in the presence of chemical substance/The level of expressed mRNA in the absence of chemical substance,yeast gene YDR497C,0.4
same,The level of expressed mRNA in the presence of chemical substance/The level of expressed mRNA in the absence of chemical substance,yeast gene YDR502C,1.6
same,The level of expressed mRNA in the presence of chemical substance/The level of expressed mRNA in the absence of chemical substance,yeast gene YDR516C,1.8
same,level of expressed mRNA in the presence/in the absence of chemical substance,yeast gene YEL063C,0.8
same,The level of expressed mRNA in the presence of chemical substance/The level of expressed mRNA in the absence of chemical substance,yeast gene YER026C,0.9
same,The level of expressed mRNA in the presence of chemical substance/The level of expressed mRNA in the absence of chemical substance,yeast gene YER053C,1.3
same,The level of expressed mRNA in the presence of chemical substance/The level of expressed mRNA in the absence of chemical substance,yeast gene YER069W,0.8
same,level of expressed mRNA in the presence/in the absence of chemical substance,yeast gene YER081W,1.8
same,The level of expressed mRNA in the presence of chemical substance/The level of expressed mRNA in the absence of chemical substance,yeast gene YER096W,7.5
same,level of expressed mRNA in the presence/in the absence of chemical substance,yeast gene YER120W,0.8
same,The level of expressed mRNA in the presence of chemical substance/The level of expressed mRNA in the absence of chemical substance,yeast gene YER178W,1.7
same,level of expressed mRNA in the presence/in the absence of chemical substance,yeast gene YFL011W,0.3
same,The level of expressed mRNA in the presence of chemical substance/The level of expressed mRNA in the absence of chemical substance,yeast gene YFL014W,13.1
same,The level of expressed mRNA in the presence of chemical substance/The level of expressed mRNA in the absence of chemical substance,yeast gene YFL030W,24.5
same,The level of expressed mRNA in the presence of chemical substance/The level of expressed mRNA in the absence of chemical substance,yeast gene YFL031W,1.0
same,The level of expressed mRNA in the presence of chemical substance/The level of expressed mRNA in the absence of chemical substance,yeast gene YFL056C,162.3
same,The level of expressed mRNA in the presence of chemical substance/The level of expressed mRNA in the absence of chemical substance,yeast gene YFL057C,51.8
same,The level of expressed mRNA in the presence of chemical substance/The level of expressed mRNA in the absence of chemical substance,yeast gene YFR047C,3.0
same,level of expressed mRNA in the presence/in the absence of chemical substance,yeast gene YGL012W,0.3
same,The level of expressed mRNA in the presence of chemical substance/The level of expressed mRNA in the absence of chemical substance,yeast gene YGL022W,0.9
same,The level of expressed mRNA in the presence of chemical substance/The level of expressed mRNA in the absence of chemical substance,yeast gene YGL026C,3.7
same,level of expressed mRNA in the presence/in the absence of chemical substance,yeast gene YGL115W,1.2
same,The level of expressed mRNA in the presence of chemical substance/The level of expressed mRNA in the absence of chemical substance,yeast gene YGL126W,1.6
same,The level of expressed mRNA in the presence of chemical substance/The level of expressed mRNA in the absence of chemical substance,yeast gene YGL202W,1.3
same,The level of expressed mRNA in the presence of chemical substance/The level of expressed mRNA in the absence of chemical substance,yeast gene YGL209W,0.6
same,The level of expressed mRNA in the presence of chemical substance/The level of expressed mRNA in the absence of chemical substance,yeast gene YGL248W,0.2
same,The level of expressed mRNA in the presence of chemical substance/The level of expressed mRNA in the absence of chemical substance,yeast gene YGL252C,2.7
same,The level of expressed mRNA in the presence of chemical substance/The level of expressed mRNA in the absence of chemical substance,yeast gene YGL254W,3.1
same,The level of expressed mRNA in the presence of chemical substance/The level of expressed mRNA in the absence of chemical substance,yeast gene YGR037C,1.7
same,The level of expressed mRNA in the presence of chemical substance/The level of expressed mRNA in the absence of chemical substance,yeast gene YGR055W,5.0
same,level of expressed mRNA in the presence/in the absence of chemical substance,yeast gene YGR096W,0.8
same,level of expressed mRNA in the presence/in the absence of chemical substance,yeast gene YGR191W,0.1
same,The level of expressed mRNA in the presence of chemical substance/The level of expressed mRNA in the absence of chemical substance,yeast gene YGR194C,2.4
same,level of expressed mRNA in the presence/in the absence of chemical substance,yeast gene YGR204W,0.9
same,The level of expressed mRNA in the presence of chemical substance/The level of expressed mRNA in the absence of chemical substance,yeast gene YGR256W,3.4
same,The level of expressed mRNA in the presence of chemical substance/The level of expressed mRNA in the absence of chemical substance,yeast gene YGR282C,0.8
same,level of expressed mRNA in the presence/in the absence of chemical substance,yeast gene YGR288W,1.6
same,level of expressed mRNA in the presence/in the absence of chemical substance,yeast gene YHR025W,0.2
same,The level of expressed mRNA in the presence of chemical substance/The level of expressed mRNA in the absence of chemical substance,yeast gene YHR111W,4.5
same,level of expressed mRNA in the presence/in the absence of chemical substance,yeast gene YHR123W,0.8
same,The level of expressed mRNA in the presence of chemical substance/The level of expressed mRNA in the absence of chemical substance,yeast gene YHR137W,0.2
same,The level of expressed mRNA in the presence of chemical substance/The level of expressed mRNA in the absence of chemical substance,yeast gene YHR174W,1.0
same,The level of expressed mRNA in the presence of chemical substance/The level of expressed mRNA in the absence of chemical substance,yeast gene YHR176W,6.3
same,level of expressed mRNA in the presence/in the absence of chemical substance,yeast gene YIL006W,0.9
same,The level of expressed mRNA in the presence of chemical substance/The level of expressed mRNA in the absence of chemical substance,yeast gene YIL045W,2.1
same,The level of expressed mRNA in the presence of chemical substance/The level of expressed mRNA in the absence of chemical substance,yeast gene YIL107C,3.5
same,The level of expressed mRNA in the presence of chemical substance/The level of expressed mRNA in the absence of chemical substance,yeast gene YIL154C,2.4
same,The level of expressed mRNA in the presence of chemical substance/The level of expressed mRNA in the absence of chemical substance,yeast gene YIL155C,2.5
same,The level of expressed mRNA in the presence of chemical substance/The level of expressed mRNA in the absence of chemical substance,yeast gene YIL167W,6.9
same,The level of expressed mRNA in the presence of chemical substance/The level of expressed mRNA in the absence of chemical substance,yeast gene YIL168W,7.8
same,The level of expressed mRNA in the presence of chemical substance/The level of expressed mRNA in the absence of chemical substance,yeast gene YIR031C,2.6
same,The level of expressed mRNA in the presence of chemical substance/The level of expressed mRNA in the absence of chemical substance,yeast gene YIR032C,2.6
same,The level of expressed mRNA in the presence of chemical substance/The level of expressed mRNA in the absence of chemical substance,yeast gene YIR034C,3.2
same,The level of expressed mRNA in the presence of chemical substance/The level of expressed mRNA in the absence of chemical substance,yeast gene YIR036C,3.3
same,The level of expressed mRNA in the presence of chemical substance/The level of expressed mRNA in the absence of chemical substance,yeast gene YJL031C,4.7
same,The level of expressed mRNA in the presence of chemical substance/The level of expressed mRNA in the absence of chemical substance,yeast gene YJL045W,9.7
same,The level of expressed mRNA in the presence of chemical substance/The level of expressed mRNA in the absence of chemical substance,yeast gene YJL060W,5.3
same,The level of expressed mRNA in the presence of chemical substance/The level of expressed mRNA in the absence of chemical substance,yeast gene YJL068C,6.5
same,The level of expressed mRNA in the presence of chemical substance/The level of expressed mRNA in the absence of chemical substance,yeast gene YJL088W,3.2
same,The level of expressed mRNA in the presence of chemical substance/The level of expressed mRNA in the absence of chemical substance,yeast gene YJL099W,3.1

# From US8192962B2, “Processes for detecting toxic substances” (Daikin Industries, Ltd., priority 2001, dated 2012)
